Literature values, collected in US6884908B2, “Process for isolation of hepatoprotective agent “oleanolic acid” from Lantana camera” (Council of Scientific & Industrial Research, priority 2003, dated 2005).

How the values were obtained:
[1] = test system: experimental hyperlipidemic rats; conditions: 50 mg/kg, P.O. for 9 days
[2] = test system: azoxymethane-induced intestinal tumor; conditions: rats, 200 ppm in diet for 3 weeks
[3] = test system: CCl4-induced liver parenchymal cell necrosis, steatosis and degeneration; conditions: in vivo
[4] = test system: paw edema produced by dextran; conditions: rats and mice
[5] = test system: adjuvant induced arthritis; conditions: rats and mice

CC1(C)CC[C@]2(C(=O)O)CC[C@]3(C)C(=CC[C@@H]4[C@@]5(C)CC[C@H](O)C(C)(C)[C@@H]5CC[C@]43C)[C@@H]2C1 [oleanolic acid, (3-O-β-hydroxy-olea-12-en-28-oic acid]
decrease of elevated blood cholesterol level [1]: more than 40% | decrease of elevated β-lipoprotein level [1]: more than 40% | incidence and multiplicity of azoxymethane-induced intestinal tumor [2]: decreases the incidence and multiplicity | CCl4-induced liver parenchymal cell necrosis, steatosis and degeneration [3]: decreases | paw edema produced by dextran [4]: inhibiting | adjuvant induced arthritis [5]: suppressing
